# Test results reported in patent US12479830B2, “Homopiperazinyl and homopiperidinyl quinazolin-4(3H)-one derivatives having multimodal activity against pain” (ESTEVE PHARMACEUTICALS, S.A., priority 2019, dated 2025).
# How the values were obtained:
# [1] = biological target: T1, Human σ1 receptor (Homo sapiens, UniProt Q99720); assay: Human σ1 receptor radioligand assay ([3H](+)-pentazocine binding); details: binding to the σ1 receptor, expressed as Ki class; + also covers inhibition between 1% and 50%
# T1 construct: expressed in transfected cells; host or cells: HEK-293
# In short: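 Ki was derived from five test concentrations, or % inhibition was measured at a single 1 or 10 μM dose, against 5 nM [3H](+)-pentazocine. Incubation was 120 min at 37° C in 50 mM Tris-HCl pH 8 with 7 μg HEK-293 membranes, and 10 μM haloperidol set non-specific binding. Bound radioactivity was counted after filtration.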
# [2] = biological target: Human α2δ-1 subunit of Cav2.2 calcium channel (Homo sapiens, UniProt P54289); assay: Human α2δ-1 subunit of Cav2.2 calcium channel assay ([3H]-gabapentin binding); details: binding to the α2δ-1 subunit of voltage-gated calcium channels, expressed as Ki class; + also covers inhibition between 1% and 50%
# In short: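 Affinity (Ki, five concentrations) or % inhibition at 1 or 10 μM, from displacement of 15 nM [3H]-gabapentin on human α2δ-1 membranes. Incubation 60 min, 27° C., Hepes-KOH 10 mM pH 7.4; 10 μM pregabalin defined non-specific binding; bound radioactivity counted after GF/C filtration.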
# Sequence of Human α2δ-1 subunit of Cav2.2 calcium channel (P54289 25-1103): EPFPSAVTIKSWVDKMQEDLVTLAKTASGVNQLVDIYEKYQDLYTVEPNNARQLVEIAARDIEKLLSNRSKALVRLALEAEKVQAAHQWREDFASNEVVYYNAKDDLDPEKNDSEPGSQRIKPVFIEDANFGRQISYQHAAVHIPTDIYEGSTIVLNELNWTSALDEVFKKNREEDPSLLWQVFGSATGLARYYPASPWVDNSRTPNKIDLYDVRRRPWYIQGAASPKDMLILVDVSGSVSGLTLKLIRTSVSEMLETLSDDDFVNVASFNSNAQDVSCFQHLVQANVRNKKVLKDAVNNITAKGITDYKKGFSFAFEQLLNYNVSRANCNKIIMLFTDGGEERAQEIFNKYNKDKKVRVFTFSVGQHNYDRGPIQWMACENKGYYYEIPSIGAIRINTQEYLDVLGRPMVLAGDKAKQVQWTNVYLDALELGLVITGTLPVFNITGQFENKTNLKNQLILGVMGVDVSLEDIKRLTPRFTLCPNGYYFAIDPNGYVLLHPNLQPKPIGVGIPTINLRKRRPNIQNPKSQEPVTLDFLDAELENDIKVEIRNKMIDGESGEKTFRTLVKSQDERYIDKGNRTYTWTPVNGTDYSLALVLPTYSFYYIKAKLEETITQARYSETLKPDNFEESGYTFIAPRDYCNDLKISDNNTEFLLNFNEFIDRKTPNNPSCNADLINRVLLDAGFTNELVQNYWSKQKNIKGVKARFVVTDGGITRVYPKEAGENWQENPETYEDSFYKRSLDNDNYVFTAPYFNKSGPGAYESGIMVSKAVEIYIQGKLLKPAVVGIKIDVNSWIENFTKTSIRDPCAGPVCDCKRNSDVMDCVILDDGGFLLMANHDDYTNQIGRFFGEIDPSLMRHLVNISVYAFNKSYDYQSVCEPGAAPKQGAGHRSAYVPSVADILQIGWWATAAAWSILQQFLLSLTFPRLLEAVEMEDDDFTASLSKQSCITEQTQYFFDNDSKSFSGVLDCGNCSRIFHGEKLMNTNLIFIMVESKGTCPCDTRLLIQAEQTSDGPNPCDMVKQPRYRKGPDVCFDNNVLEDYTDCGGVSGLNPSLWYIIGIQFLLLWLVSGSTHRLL
# T1 sequence (Q99720 whole entry): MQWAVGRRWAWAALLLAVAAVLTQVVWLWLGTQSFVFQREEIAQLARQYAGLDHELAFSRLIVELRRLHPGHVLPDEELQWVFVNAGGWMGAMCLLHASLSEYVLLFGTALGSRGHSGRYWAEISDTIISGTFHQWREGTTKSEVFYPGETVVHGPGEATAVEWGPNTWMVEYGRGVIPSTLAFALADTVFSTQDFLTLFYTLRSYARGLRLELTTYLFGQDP
Structure (SMILES),Ki [1] [nM],Ki [2] [nM]
"CCC[C@H](c1nc2ccc(C(F)(F)F)cc2c(=O)n1CC)N1CCCN(C)CC1 [Example 252, (R)-3-ethyl-2-(1-(4-methyl-1,4-diazepan-1-yl)butyl)-6-(trifluoromethyl)quinazolin-4(3H)-one]",< 500,< 500
CCC[C@H](c1nc2ccc(F)cc2c(=O)n1CC)N1CCCNC(C)(C)C1 [Example 253],500 to 1000,> 5000
"CCC[C@H](c1nc2ccc(Cl)cc2c(=O)n1C)N1CC[C@H](C)N(C)CC1 [Example 254, 6-chloro-2-((R)-1-((S)-4,5-dimethyl-1,4-diazepan-1-yl)butyl)-3-methylquinazolin-4(3H)-one]",< 500,> 5000
"CCC[C@H](c1nc2ccc(F)cc2c(=O)n1C)N1CCN[C@H](C)CC1 [Example 255, 6-fluoro-3-methyl-2-((R)-1-((R)-5-methyl-1,4-diazepan-1-yl)butyl)quinazolin-4(3H)-one]",> 1000,> 5000
"CCC[C@H](c1nc2ccc(F)cc2c(=O)n1C)N1CCN[C@@H](C)CC1 [Example 256, 6-fluoro-3-methyl-2-((R)-1-((S)-5-methyl-1,4-diazepan-1-yl)butyl)quinazolin-4(3H)-one]",< 500,500 to 5000
"CCC[C@H](c1nc2ccc(Cl)cc2c(=O)n1C)N1CC[C@@H](C)N(C)CC1 [Example 257, 6-chloro-2-((R)-1-((R)-4,5-dimethyl-1,4-diazepan-1-yl)butyl)-3-mehtylquinazolin-4(3H)-one]",< 500,> 5000
"CCC[C@H](c1nc2ccc(C(F)(F)F)cc2c(=O)n1CC)N1CCN[C@H](C)CC1 [Example 258, 3-ethyl-2-((R)-1-((R)-5-methyl-1,4-diazepan-1-yl)butyl)-6-(trifluoromethyl)quinazolin-4(3H)-one]",< 500,500 to 5000
"CCC[C@H](c1nc2ccc(C(F)(F)F)cc2c(=O)n1CC)N1CCN[C@@H](C)CC1 [Example 259, 3-ethyl-2-((R)-1-((S)-5-methyl-1,4-diazepan-1-yl)butyl)-6-(trifluoromethyl)quinazolin-4(3H)-one]",< 500,< 500
"CCC[C@H](c1nc2cc(F)c(F)cc2c(=O)n1CC)N1CCCN[C@@H](C)C1 [Example 260, 3-ethyl-6,7-difluoro-2-((R)-1-((S)-3-methyl-1,4-diazepan-1-yl)butyl)quinazolin-4(3H)-one]",> 1000,< 500
"CCC[C@H](c1nc2cc(F)c(F)cc2c(=O)n1CC)N1CCCN[C@H](C)C1 [Example 261, 3-ethyl-6,7-difluoro-2-((R)-1-((R)-3-methyl-1,4-diazepan-1-yl)butyl)quinazolin-4(3H)-one]",> 1000,< 500
CCC[C@H](c1nc2ccc(Br)cc2c(=O)n1CC)N1CC[C@H](C)N(C)CC1 [Example 262],500 to 1000,< 500
CCC[C@@H](c1nc2ccc(Br)cc2c(=O)n1CC)N1CC[C@H](C)N(C)CC1 [Example 263],> 1000,> 5000
"CCCC(c1nc2ccc(F)cc2c(=O)n1CC)C1CCCNCC1 (stereo not shown) [Example 266, 2-(1-(Azepan-4-yl)butyl)-3-ethyl-6-fluoroquinazolin-4(3H)-one]",> 1000,< 500
"CCCC(c1nc2ccc(F)cc2c(=O)n1CC)C1CCCN(C)CC1 (stereo not shown) [Example 267, 3-ethyl-6-fluoro-2-(1-(1-methylazepan-4-yl)butyl)quinazolin-4(3H)-one]",500 to 1000,< 500
"CCCC(c1nc2ccc(F)cc2c(=O)n1CC)C1CCCN(CC)CC1 (stereo not shown) [Example 268, 3-ethyl-2-(1-(1-ethylazepan-4-yl)butyl)-6-fluoroquinazolin-4(3H)-one]",< 500,500 to 5000
"CC[C@@H]1CCn2c(nc3ccc(Br)cc3c2=O)[C@H]1N1CCCN(C)CC1 [Example 269, (6S,7R)-2-Bromo-7-ethyl-6-(4-methyl-1,4-diazepan-1-yl)-8,9-dihydro-6H-pyrido[2,1-b]quinazolin-11(7H)-one]",500 to 1000,> 5000
"CC[C@H]1CCn2c(nc3ccc(Br)cc3c2=O)[C@@H]1N1CCCN(C)CC1 [Example 270, (6R,7S)-2-bromo-7-ethyl-6-(4-methyl-1,4-diazepan-1-yl)-8,9-dihydro-6H-pyrido[2,1-b]quinazolin-11(7H)-one]",500 to 1000,> 5000
